Data as given in patent publication US20230233545A1, “TREATMENT OF ATRIAL DYSFUNCTION” (MyoKardia, Inc., priority 2020, published 2023).

Experiments:
[1] = tested on: beagle dogs (without left ventricular dysfunction); assay: AF inducibility and LA size/function with phenylephrine on board, dobutamine (Example 4); assay type: in vivo; settings: FIG. 6
Method: Once sinus rhythm was re-established (cardioversion was used if AF persisted for more than 30 minutes), a third anesthetized ECHO was performed.
The effects of dobutamine on AF inducibility and LA size and function were examined by echocardiography (ECHO) and electrocardiogram (ECG) in beagle dogs with phenylephrine (PE) on board, and compared to the effects of PE alone. The beagle dogs (without left ventricular dysfunction) were assessed for left atrial function and size and for atrial fibrillation inducibility according to the protocols described in Example 3 (experimental design shown in FIG. 5), allowing for the effects of dobutamine to be compared to those of Compound I as shown in Example 3.

[2] = tested on: beagle dogs under isoflurane anesthesia, right-atrial burst pacing; assay: AF inducibility and LA size/function with phenylephrine on board (Example 3); settings: P<0.05

SMILES	AF duration ([1]; dobutamine 1-10 μg/kg/hr infusion with PE)	LV contractility (ΔEF) ([1]; dobutamine 1-10 μg/kg/hr infusion)	SBP, change induced by phenylephrine ([2]; PE 0.5-20 μg/kg/min fixed rate) [%]	LAmin under phenylephrine ([2]; PE 0.5-20 μg/kg/min, from 22.9±2.0) [mL/m^2]	SBP under phenylephrine ([2]; PE 0.5-20 μg/kg/min, from 88.6±2.7) [mmHg]	LAmin, change induced by phenylephrine ([2]; PE 0.5-20 μg/kg/min, increase) [%]
CC(CCc1ccc(O)cc1)NCCc1ccc(O)c(O)c1 (stereo not drawn) [dobutamine]	did not reduce AF duration, and in fact increased it	increase LV contractility	–	–	–	–
CNC[C@H](O)c1cccc(O)c1 [phenylephrine, reference compound]	–	–	38±7	29.3±2.5	122.4±6.9	28±3
